{"source": "patent US8076449B2", "about": "“Therapeutic agents of colivelin for neurodegenerative diseases” (Tomohiro Chiba, priority 2004, dated 2011)", "origin": "cited, not measured here", "key": {"[1]": {"system": "primary cultured cortical neurons treated with Aβ (1-43)", "conditions": "Aβ (1-43) neurotoxicity; stated as known fact; cited from earlier work"}, "[2]": {"system": "F11 cells transformed with M146L-PS1", "conditions": "as already reported; cited from earlier work"}}}
{"substance": "HNG: Humanin (HN) derivative whose serine residue at the position 14 is replaced by glycine (MAPRGFSCLLLLTGEIDLPVKRRA; Humanin; UniProt Q8IVG9 1-24, looked up, variant S14G)", "values": [{"measurement": "concentration exerting complete protective action", "setting": "[1]", "result": 10, "unit": "nM"}, {"measurement": "concentration completely suppressing cell death caused by M146L-PS1", "setting": "[2]", "result": 100, "unit": "nM"}]}
